In ChEMBL document CHEMBL1201862, “PubChem BioAssay data set” (2004):
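Following 48 hours of exposure in 96-well plates, responses at five concentrations were used to interpolate endpoints linearly. Here, GI50 denotes the concentration required for 50% inhibition of growth.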 Calls of active or inactive are those of the source. Cut-off read from the data, not from the text of the source: active = GI50 up to about 1.1 µM and inactive = higher.

Assays:
Assay in all cases: inhibition of tumour cell growth, NCI panel, 48 h
[1] = test system: SK-MEL-28
[2] = test system: SNB-75
[3] = test system: HCT-116
[4] = test system: UACC-62
[5] = test system: NCI-H522
[6] = test system: MDA-MB-231
[7] = test system: NCI/ADR-RES
[8] = test system: EKVX
[9] = test system: SN12C
[10] = test system: OVCAR-8
[11] = test system: NCI-H460
[12] = test system: RPMI-8226
[13] = test system: KM12
[14] = test system: MDA-MB-435
[15] = test system: SK-OV-3
[16] = test system: IGROV-1
[17] = test system: CCRF-CEM
[18] = test system: MCF7
[19] = test system: RXF 393
[20] = test system: Hs-578T
[21] = test system: TK-10
[22] = test system: A549
[23] = test system: COLO 205
[24] = test system: NCI-H23
[25] = test system: OVCAR-3
[26] = test system: HCT-15
[27] = test system: CAKI-1
[28] = test system: BT-549
[29] = test system: U-251
[30] = test system: MDA-N
[31] = test system: SF-539
[32] = test system: SK-MEL-5
[33] = test system: DU-145
[34] = test system: UO-31
[35] = test system: OVCAR-5
[36] = test system: NCI-H226
[37] = test system: K562
[38] = test system: PC-3
[39] = test system: SW-620
[40] = test system: SNB-19
[41] = test system: M14
[42] = test system: A498
[43] = test system: SK-MEL-2
[44] = test system: SF-268
[45] = test system: SR
[46] = test system: MOLT-4
[47] = test system: HT-29
[48] = test system: HL-60
[49] = test system: T47D
[50] = test system: HCC 2998
[51] = test system: SF-295
[52] = test system: 786-0
[53] = test system: ACHN
[54] = test system: UACC-257
[55] = test system: HOP-92
[56] = test system: OVCAR-4
[57] = test system: Malme-3M
[58] = test system: LOX IMVI
[59] = test system: HOP-62

Measured: GI50

CC(=O)Nc1sc(Br)cc1S(=O)(=O)c1ccc(Cl)cc1
inactive: [1] 57.3 µM | [2] 28.2 µM | [3] 26.1 µM | [4] 38.1 µM | [5] 19.3 µM | [6] > 100 µM | [7] 21.9 µM | [8] 37.2 µM | [9] 71.9 µM | [10] 26.9 µM | [11] 33.7 µM | [12] 23.2 µM | [13] 20.3 µM | [14] 28.1 µM | [15] 43.1 µM | [16] 44.4 µM | [17] 35.1 µM | [18] 12.8 µM | [19] 20 µM | [20] 20 µM | [21] 46.7 µM | [22] 29.2 µM | [23] > 10 µM | [24] 29.4 µM | [25] 20.5 µM | [27] > 100 µM | [28] 35.6 µM | [29] 34.8 µM | [30] 43.5 µM | [32] > 10 µM | [33] 46.6 µM | [34] 22.5 µM | [35] 26.2 µM | [36] 19.1 µM | [37] 21.1 µM | [38] 17.9 µM | [39] 71.1 µM | [40] 46.6 µM | [41] 15.2 µM | [42] 47.2 µM | [43] 30.1 µM | [44] 30.1 µM | [45] 14.6 µM | [46] 35.1 µM | [47] 16.9 µM | [48] 21.9 µM | [49] 32.1 µM | [50] 19.4 µM | [51] 31.2 µM | [52] 26.2 µM | [53] 34 µM | [54] 29.9 µM | [55] 20.1 µM | [56] 23.2 µM | [57] 32.1 µM
> 10 µM: [26]
active: [31] 0.731 µM

CCOC(=O)c1cc2c(OC)cc(OC)cc2oc1=O
> 100 µM: [26]
inactive: [1] > 100 µM | [2] 38.5 µM | [3] > 100 µM | [4] > 100 µM | [5] 52.1 µM | [6] 35.9 µM | [7] > 100 µM | [8] > 100 µM | [9] > 100 µM | [58] 5.58 µM | [10] > 100 µM | [11] > 100 µM | [12] > 100 µM | [14] > 100 µM | [16] > 100 µM | [17] > 100 µM | [18] > 100 µM | [19] 57.3 µM | [20] 45.2 µM | [21] > 100 µM | [22] > 100 µM | [23] > 100 µM | [24] 63.8 µM | [25] > 100 µM | [27] 55.3 µM | [28] 76 µM | [29] 37.7 µM | [30] > 100 µM | [31] > 100 µM | [32] > 100 µM | [59] 65.3 µM | [33] > 100 µM | [35] > 100 µM | [36] > 100 µM | [37] > 100 µM | [38] > 100 µM | [39] > 100 µM | [40] 41.8 µM | [41] > 100 µM | [42] > 100 µM | [43] > 100 µM | [44] 42.3 µM | [45] > 100 µM | [46] > 100 µM | [47] > 100 µM | [48] > 100 µM | [49] > 100 µM | [50] > 100 µM | [51] 50 µM | [52] 52.5 µM | [53] > 100 µM | [54] > 100 µM | [55] 46.8 µM | [56] > 100 µM | [57] > 100 µM
